By pIC50 is commonly meant the negative decadic logarithm of the IC50, by convention in mol/L. By IC50 is commonly meant the midpoint of a concentration-inhibition curve. The term EC50 denotes the concentration needed to bring the measured effect to its halfway point. As a reminder, the inhibition is how much of the control response was suppressed. A lower inhibition goes with a weak effect.

Consider seven compounds from PMC12122428, “Discovery of non-covalent rhinovirus 3Cpro inhibitors by molecular docking, in vitro assays, molecular dynamics simulations and DFT analyses” (Frontiers in Pharmacology, 2025).

The target of assay [1] is T1, HRV-14 3Cpro (Human rhinovirus 14, UniProt P03303).
T1 construct: most efficiently processed substrate by HRV-14 3Cpro (Acro, Beijing, China); purchased Acro, Beijing, China
The following applies: cited from earlier work.

Assay [2] addresses T1, HRV-14 3Cpro. The assay is described as follows: HRV-14 3Cpro enzyme inhibition assay (Dabcyl-[…]-Edans cleavage, fluorescence). It is filed as biochemical. The following applies: for IC50: concentration-response, 50 μM to 0.617 μM, n = 5, mean ± SEM; for inhibition at 50 µM / Inhibition % HRV 3Cpro @ 50 μM: 50 μM compound, single point. As for the experimental part:
In the in vitro cleavage assay, the peptide Dabcyl-[…]-Edans was identified as the most efficiently processed substrate by HRV-14 3Cpro (Acro, Beijing, China), and was subsequently utilized in the enzyme inhibition assay. A total of 44 candidate compounds were purchased from Topscience (TargetMol, United States). Dimethyl sulfoxide (DMSO) (Innochem, Beijing, China) served as the solvent for dissolving the compounds, and all solutions were stored at −20°C. The assays were conducted using 100 μL reaction samples, which comprised 1 μL of protease, 10 μL of a 10 μM substrate solution, and varying concentrations of the tested compounds (ranging from 50 μM to 0.617 μM) in a 50 mM Tris buffer at pH 7.0. To evaluate the inhibitory effects of the compounds, the protease and each compound were preincubated at 37°C for 30 min before the addition of the substrate. The reaction mixture was subsequently incubated for 1 h at 37°C. Fluorescence measurements were performed using a multifunction enzyme label reader (SpectraMax M5, Molecular Devices), set to an excitation wavelength of 340 nm and an emission wavelength of 490 nm. […] The inhibition rate was quantified according to the following formula: Inhibition rate 100%=RFUemzyme−RFUsample/RFUemzyme−RFUcontrol×100%

The subject of a further assay is HRV-14. Conditions: ref Binford et al., 2007; Zalman et al., 2000; read-out: antiviral activity EC50; cited from earlier work.

Each structure is given as a SMILES string. Like-named read-outs stand apart in the source and are kept apart here.

T1 sequence (P03303 1538-1719): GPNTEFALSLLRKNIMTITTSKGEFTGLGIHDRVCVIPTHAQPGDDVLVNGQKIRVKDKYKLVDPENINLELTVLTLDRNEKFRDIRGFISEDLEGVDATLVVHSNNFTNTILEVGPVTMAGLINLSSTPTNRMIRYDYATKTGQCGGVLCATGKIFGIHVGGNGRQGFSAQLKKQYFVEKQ

For `O=c1cc(-c2cccnc2)[nH]c2cc(Cc3ccccc3)ccc12` [Compound 14], the pIC50 at HRV-14 3Cpro [1] (non-covalent inhibitor, ref Baxter et al., 2011) is 4.7.
With `CCOC(=O)/C=C/[C@H](C[C@@H]1CCNC1=O)NC(=O)[C@@H](CC(=O)[C@@H](NC(=O)c1cc(C)on1)C(C)C)Cc1ccc(F)cc1` [Rupintrivir, reference compound], on HRV-14 3Cpro [2], half-maximal inhibition (IC50) required 220 ± 340 nM. Besides, the EC50 in the assay on HRV-14 is 12 nM.
On HRV-14 3Cpro [2], `O=C(COC(=O)[C@@H](CC(=O)c1ccccc1)Nc1ccc(F)cc1)c1ccccc1` [Compound S33] registered an inhibition at 50 µM of 96.5% and an IC50 of 11300 ± 710 nM.
Regarding `CCOc1ccc(NC(=O)[C@H](CC(C)C)NC(=O)[C@H]2CC[C@@H](C)CC2)cc1` [Compound S34], at HRV-14 3Cpro [2], 50 µM produced 75.6% inhibition, the “Inhibition % HRV 3Cpro @ 50 μM” value worked out at 75.5% and half-maximal inhibition (IC50) was put at 24100 ± 550 nM.
For the compound `Nc1c(NC(=O)NC[C@H]2CCCO2)c(-c2ccccc2)nn1-c1ccc(C(F)(F)F)cc1` [Compound S21], on HRV-14 3Cpro [2], the inhibition at 50 µM was 80.5%, the “Inhibition % HRV 3Cpro @ 50 μM” value is on record as 80.5% and half-maximal inhibition (IC50) was put at 30400 ± 670 nM.
Turning to `CCC(CC)C(=O)Nc1cccc(C(=O)Nc2ccccc2C(=O)Nc2ccc(OC)cc2)c1` [Compound S43], at HRV-14 3Cpro [2], 50 µM produced 88.8% inhibition, the “Inhibition % HRV 3Cpro @ 50 μM” value is 88.7% and the concentration for half-maximal inhibition (IC50) is 2330 ± 500 nM.
Take `Cc1occc1C(=O)N[C@@H]1C(=O)N[C@@H](Cc2ccc(F)cc2)C(=O)N[C@H](C=O)CCC(=O)N(C)Cc2cccc1c2` [compound 10]: the IC50 at HRV-14 3Cpro [1] (macrocyclic covalent inhibitor, ref Kawatkar et al., 2016, Namoto et al., 2018) is 8 nM.
